# US7371829B2, “Haptens, immunogens, antibodies and conjugates to ketamine and its metabolites” (Randox Laboratories Limited, priority 2002, dated 2008)
# Tests used:
# [1] = test system: antiserum raised to immunogen C (hapten C-BSA), IgG fraction; assay: Competitive ELISA microtiter plate assay for ketamine and norketamine (conjugate A, hapten A-HRP, as detection reagent); assay type: binding, sheep; details: for IC50, CR = concentration of potential cross-reactant that causes 50% displacement of signal: potential cross-reactants, standards 0-500 ng/ml
# Protocol: An aqueous solution of the immunogen prepared in Example 10 was formulated with Freund's Complete Adjuvant (FCA) to form an emulsion consisting of 4 mg/ml immunogen in 50% (v/v) FCA. Three sheep were immunised with this emulsion (1° immunisation), 0.25 ml being subcutaneously injected at each of four sites in the flank of each animal. The next immunisation (boost 1) contained 2 mg/ml immunogen and subsequent immunizations (boosts 2 to 11) contained 1 mg/ml immunogen. All boosts were emulsified in 50% (v/v) Freund's Incomplete Adjuvant (FIA) and were administered in the same manner as the 1° immunisation, at monthly intervals for 1 year. Blood sampling took place 7 to 14 days after each boost. Each sample was processed to produce antiserum, which was further purified by caprylic acid and ammonium sulfate precipitation to yield an immunoglobulin G (IgG) fraction. The IgG fraction was evaluated by competitive ELISA microtiter plate assay, as described in Example 16 below.
# The wells of an enhanced binding 96 well polystyrene microtiter plate were coated with the IgG fraction of the antiserum raised to immunogen C (hapten C-BSA) (Example 10), diluted in 10 mM Tris, pH 8.5 (125 μl/well). The appropriate antibody coating dilution was determined using standard ELISA checkerboard techniques. The plate was incubated for 2 hours at 37° C., washed 4 times with Tris buffered saline containing Tween 20 (TBST) and tapped dry. Standard solutions of ketamine and norketamine were prepared in TBST at 0, 0.1, 0.5, 1, 5, 25, 100 and 500 ng/ml and 50 μl of each was added to the appropriate wells (FIG. 4). 75 μl of conjugate A (hapten A-HRP) (Example 11), diluted in Tris buffer (pH 7.2) containing EDTA, D-mannitol, sucrose, thimerosal and BSA, was added to each of the wells, as shown in FIG. 4. The appropriate dilution of conjugate was also determined using standard ELISA checkerboard techniques. The plate was incubated at 37° C. for 2 hours. Excess unbound conjugate was removed by washing 6 times over a 10 minute period with TBST.
# 125 μl of tetramethylbenzidine (TMB) substrate solution was added to each well of the plate that was then incubated for 15 to 20 minutes in the dark at room temperature. The reaction was terminated by addition of 125 μl 0.2M H2SO4 to each well. The absorbance was then measured at 450 nm using a microtiter plate reader.
# In order to determine the specificity of the competitive ELISA for ketamine and norketamine, standard solutions were prepared in TBST at 0, 0.1, 0.5, 1, 5, 25, 100 and 500 ng/ml. Employing each series of standards in the ketamine competitive ELISA, calibration curves were generated and these were used to determine the cross-reactivity of the immunoassay with these substances. The results of this study are presented in Table 2, cross-reactivity of potential cross-reactants phencyclidine and dextromethorphan being calculated according to the following formula: % CR=IC50, Ketamine/IC50, CR×100
# Where %CR is the percentage cross-reactivity, IC50, Ketamine is the concentration of ketamine that causes 50% displacement of signal and IC50, CR is the concentration of potential cross-reactant that causes 50% displacement of signal.
# [2] = test system: antibodies to phenylcyclohexylamine derivative immunogens; details: Abbott immunoassay, Table 3(c) at page 18; cited from earlier work
# [3] = test system: Neogen kit antibodies developed against a ketamine hapten; details: Neogen ELISA kit; cited from earlier work
# [4] = test system: antibodies against five epitopes of phencyclidine (PCP)-like molecules; details: antibodies to PCP-like haptens conjugated to BSA; Table 2, page 475 of Owens et al; cited from earlier work
# [5] = test system: antibodies to PCP and other arylcyclohexylamines; details: as indicated by high IC50 values, Table 1, page 667 of Owens et al; cited from earlier work
# [6] = antiserum to immunogen C, conjugate A
# [7] = standard concentration 0.1 ng/ml
# [8] = standard concentration 0.5 ng/ml
# [9] = standard concentration 25 ng/ml
# [10] = standard concentration 100 ng/ml
# [11] = standard concentration 500 ng/ml
# [12] = % CR=IC50, Ketamine/IC50, CR×100
Structure (SMILES),"% CR = percentage cross-reactivity based on specificity to ketamine [1, 6] [%]","IC50 = standard concentration which produces 50% B/B0 [1, 6] [µg/mL]","% B/B0 [1, 7] [%]","% B/B0 [1, 8] [%]",% B/B0 ([1]; standard concentration 1 ng/ml) [%],% B/B0 ([1]; standard concentration 5 ng/ml) [%],"% B/B0 [1, 9] [%]","% B/B0 [1, 10] [%]","% B/B0 [1, 11] [%]",cross-reactivity [2],cross-reactivity [3] [%],cross-reactivity [4] [%],cross-reactivity [5],"% CR = percentage cross-reactivity based on specificity to ketamine [1, 12] [%]","IC50, CR = concentration of potential cross-reactant that causes 50% displacement of signal [1] [µg/mL]"
"CNC1(c2ccccc2Cl)CCCCC1=O (racemic) [Ketamine, (±)-2-(o-chlorophenyl)-2-(methylamino) cyclohexanone]",100.0,0.0029,92.1,82.8,67.9,42.6,25.0,18.4,11.6,does not cross-react significantly,100,< 0.6,low levels of cross-reactivity,,
COc1ccc2c(c1)[C@]13CCCC[C@@H]1[C@H](C2)N(C)CC3 [Dextromethorphan],,,,,,,,,,,,,,<0.58,>0.5
"NC1(c2ccccc2Cl)CCCCC1=O (stereo not drawn) [Norketamine, [2-amino-2-(o-chlorophenyl)]cyclohexanone]",138.1,0.0021,86.9,66.8,64.5,45.3,22.7,15.1,10.5,,4.6,,,,
c1ccc(C2(N3CCCCC3)CCCCC2)cc1 [Phencyclidine],,,,,,,,,,,,,,<0.58,>0.5
